# Article PMC12563652 (International Journal of Molecular Sciences, 2025)
# Entries after “also recorded” stand apart in the source; their conditions may differ. Like-named read-outs stand apart in the source and are kept apart here.
# Experiments:
# HepG2 cells = assay: Glucose consumption (Amplex Red assay) in HepG2 cells; format: cell-based, human
# Method: The HepG2 human hepatocellular carcinoma cell line (ATCC® HB-8065™) was cultured in DMEM supplemented with 10% FBS, 100 µg/mL streptomycin, and 100 IU/mL penicillin at 37 °C in 5% CO2. Cells were seeded in 96-well plates at a density of 10,000 cells/well and used for experiments 24 h after plating.
# Stock solutions of test compounds were prepared at a concentration of 10 mM in dimethyl sulfoxide (DMSO). At least 1 mg of each substance was carefully measured and mixed with the right amount of DMSO. A series of dilutions were made in DMSO and then further diluted in phosphate-buffered saline before being introduced into the cell culture medium. Precipitation or opalescence was assessed prior to application.
# The glucose uptake was measured with the Amplex® Red Glucose/Glucose Oxidase Assay Kit from Thermo Fisher Scientific, following the guidelines provided by the maker. Cell culture supernatants were collected and incubated with a reaction mix containing 100 μM Amplex® Red reagent, 0.2 U/mL horseradish peroxidase (HRP), and 1 U/mL glucose oxidase at room temperature for 30 min in the dark. Fluorescence was measured at 530 nm excitation and 590 nm emission using the POLARstar Omega plate reader (BMG Labtech).
# 3T3L1 cell line = format: cell-based; conditions: mouse, 24 h
# Method: (§1) Prior to investigating the biological activity and molecular characteristics of the test compounds in vitro, a comprehensive cytotoxicity screening was performed using HepG2 and 3T3-L1 cell lines. Two complementary assays were applied: one based on the quantification of adenylate kinase release as an indicator of cell membrane damage, and another relying on resazurin reduction to assess cellular metabolic activity. These complementary assays enable sensitive and reliable detection of cytotoxic effects across diverse cell types. This preliminary assessment was carried out to ensure that subsequent functional analyses would not be confounded by nonspecific cytotoxic effects.
# (§2) The damage of cell membrane was evaluated with the ToxiLight BioAssay Kit from Lonza (Visp, Switzerland). This test is very sensitive and measures cell damage by looking at the release of adenylate kinase (AK). After 24 h of treatment, 5 µL of culture supernatant was transferred to a 384-well white plate (PerkinElmer, Singapore), followed by the addition of 20 µL of Adenylate Kinase Detection Reagent (AKDR). After a 10 min incubation at room temperature, luminescence was measured using the POLARstar Omega plate reader (BMG Labtech, Ortenberg, Germany). Results were expressed as a percentage relative to a lysed control (100% cell death).
# HEPG2 cell line [1] = format: cell-based; conditions: human, 24 h
# Method: as §1, §2
# Danio rerio larvae = assay: Fructose-induced lipid disturbance in zebrafish larvae (Oil Red O); format: in vivo; conditions: 10 µg/mL with 4% fructose, 24 h
# Method: Zebrafish larvae 4 dpf were incubated for another 24 h with 4% fructose (final solution) in embryo medium to induce metabolic disorders. Tested solutions (compounds in E3: JP-14 at concentration of 20 μg/mL or resveratrol of 40 μg/mL) were added to fructose solution (8% in E3). The final concentration of JP-14 was 10 μg/mL or resveratrol of 20 μg/mL. The control group was incubated with E3 only. Incubation was carried out in a 6-well plate (10 larvae/well) to which 3 mL of liquid was added per well. Larvae were then collected, euthanized with tricaine, and transferred to 4% formaldehyde solution. After 24 h, larvae were washed 3 times with PBS (Sigma-Aldrich, Germany) and stained for neutral lipids, similar to previous studies. Larvae incubated for 1 h in a solution of 0.25% oil red O (ORO, Merck, Darmstadt, Germany) in 60% isopropanol (Merck, Germany). The samples were then rinsed three times with 60% isopropanol and washed 6 times with PBS, then imaged on a microscope (OPTA-TECH MN16, Warszawa, Poland) and analyzed with the ImageJ FIJI program. […] Next, the samples were centrifuged (10 min, 3000 rpm, MPW-260R, MPW Med Instruments, Warszawa, Poland), and the amount of dye in supernatant was determined spectrophotometrically (MuLTISKAN.GO, Thermo Fisher Scientific Inc. Waltham, MA, USA) at a wavelength of 495 nm.
# HEPG2 cell line [2] = assay: Cell viability assay (PrestoBlue, metabolic function), HepG2; format: cell-based, human; conditions: 24 h, mean
# Method: as §1
# Cell viability was measured using PrestoBlue reagent (Thermo Fisher Scientific, Waltham, MA, USA), following the manufacturer’s instructions. After 24 h of compound treatment, PrestoBlue reagent was added to each well at 10% of the remaining medium volume. The plate was incubated at 37 °C for 15 min, and fluorescence was measured using the POLARstar Omega plate reader (excitation 530 nm, emission 580 nm). Results were expressed as a percentage of viable cells relative to the DMSO-treated control.
# α1-adrenoceptor = assay: Competitive radioligand binding, [3H]prazosin, rat cerebral cortex; conditions: n.a. = no activity at 10–5 M
# Method: The competitive radioligand-binding assay assessed affinity for α1- and α2-adrenoceptors. Experiments were carried out in the rat cerebral cortex. […] The membrane preparation and assay technique followed the previously reported protocol. Radioactivity was measured using the MicroBeta2 scintillation counter (PerkinElmer, Kraków, Poland). The data was adjusted to match a single-site curve-fitting formula using Prism 8 (GraphPad Software, La Jolla, CA, USA), and the Ki values were estimated by means of the Cheng–Prusoff formula.
# [3] = tested on: platelet aggregation in rat whole blood; assay: In vitro collagen-induced platelet aggregation in rat whole blood (impedance aggregometry); format: cell-based; conditions: 50–200 µM, collagen 1.6 µg/mL
# Method: In vitro platelet aggregation assays were conducted using freshly collected whole blood from rats, utilizing the Multiplate platelet function analyzer (Roche Diagnostics, Mannheim, Germany)—a five-channel device that measures electrical impedance, following methods described previously. Upon stimulation, platelets adhere to and aggregate on dual metal sensors within the test cuvette, causing an increase in electrical resistance, which corresponds to the number of platelets attached to the electrodes.
# Blood was collected from the carotid artery of the rat into tubes coated with hirudin (S-Monovette, Sarstedt, Germany). A volume of 300 μL of the anticoagulated blood was mixed with 300 μL of prewarmed isotonic saline that contained the test compound or a vehicle control (0.1% DMSO) and incubated at 37 °C for 3 min under continuous stirring. Aggregation was triggered by adding collagen (final concentration: 1.6 µg/mL). Platelet activity was monitored for 6 min. Multiplate V2.04 software calculated the area under the curve (AUC) for each measurement to determine average platelet response.
structure (smiles),measurement,setting,value
"[H]/N=C(\N)NN=Cc1c(Cl)cncc1Cl [JP-14, (E)-2-((3,5-Dichloropyridin-4-yl)Methylene)Hydrazine-1-Carboximidamide]",glucose-stimulating effect under TAAR1 blockade,HepG2 cells; 10 µM + RTI-7470-44 (40 nM),substantially attenuated
same,increase in glucose consumption (uptake),"HepG2 cells; 10 µM, relative to vehicle-treated cells",29%
same,"membrane integrity, percentage relative to control (death cells)",3T3L1 cell line; 0.1 μM,6%
same,"membrane integrity, percentage relative to control (death cells)",3T3L1 cell line; 1 μM,6%
same,"membrane integrity, percentage relative to control (death cells)",3T3L1 cell line; 10 μM,5%
same,"membrane integrity, percentage relative to control (death cells)",3T3L1 cell line; 50 μM,4%
same,"membrane integrity, percentage relative to control (death cells)",3T3L1 cell line; 100 μM,5%
same,"membrane integrity, percentage relative to control (death cells)",HEPG2 cell line [1]; 0.1 μM,6%
same,"membrane integrity, percentage relative to control (death cells)",HEPG2 cell line [1]; 1 μM,6%
same,"membrane integrity, percentage relative to control (death cells)",HEPG2 cell line [1]; 10 μM,6%
same,"membrane integrity, percentage relative to control (death cells)",HEPG2 cell line [1]; 50 μM,10%
same,"membrane integrity, percentage relative to control (death cells)",HEPG2 cell line [1]; 100 μM,8%
same,fructose-induced yolk enlargement,Danio rerio larvae,partially attenuated
same,"cellular metabolic function, percentage relative to control (live cells)","HEPG2 cell line [2]; Table S4, 0.1 μM",96%
same,"cellular metabolic function, percentage relative to control (live cells)","HEPG2 cell line [2]; Table S4, 1 μM",101%
same,"cellular metabolic function, percentage relative to control (live cells)","HEPG2 cell line [2]; Table S4, 10 μM",95%
same,"cellular metabolic function, percentage relative to control (live cells)","HEPG2 cell line [2]; Table S4, 50 μM",71%
same,"cellular metabolic function, percentage relative to control (live cells)","HEPG2 cell line [2]; Table S4, 100 μM",60%
same,α1 Ki,α1-adrenoceptor,did not exhibit notable affinity
same,effect on collagen-induced platelet aggregation,[3],did not alter; also recorded: did not influence
